Earlier results as cited in publication PMC6832352, “Synthesis and Glycosidase Inhibition of Broussonetine M and Its Analogues” (Molecules, 2019).
Like-named read-outs stand apart in the source and are kept apart here.

Columns and labels:
[1] = target: T1, β-Glucosidase (Bos taurus, UniProt F1MNT6); details: Bovine liver, cited from earlier work
T1 sequence (F1MNT6 1-469): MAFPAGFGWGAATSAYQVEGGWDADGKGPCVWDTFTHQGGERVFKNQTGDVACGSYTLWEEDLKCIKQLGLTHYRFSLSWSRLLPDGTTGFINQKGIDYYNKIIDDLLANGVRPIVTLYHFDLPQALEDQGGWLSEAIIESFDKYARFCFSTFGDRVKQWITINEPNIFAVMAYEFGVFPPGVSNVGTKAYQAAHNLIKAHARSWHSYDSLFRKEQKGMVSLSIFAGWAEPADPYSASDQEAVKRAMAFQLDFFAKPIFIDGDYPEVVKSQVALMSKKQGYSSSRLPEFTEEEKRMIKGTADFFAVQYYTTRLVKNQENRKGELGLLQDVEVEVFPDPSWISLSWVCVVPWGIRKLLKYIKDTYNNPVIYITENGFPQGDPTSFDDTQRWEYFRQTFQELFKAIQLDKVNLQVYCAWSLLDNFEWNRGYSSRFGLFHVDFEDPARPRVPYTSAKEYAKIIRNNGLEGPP

[2] = target: β-Mannosidase; details: Snail, cited from earlier work
[3] = target: T2, α-L-Rhamnosidase (Penicillium decumbens, UniProt S7ZS15); details: P. decumbens, cited from earlier work
T2 sequence (S7ZS15 1-894): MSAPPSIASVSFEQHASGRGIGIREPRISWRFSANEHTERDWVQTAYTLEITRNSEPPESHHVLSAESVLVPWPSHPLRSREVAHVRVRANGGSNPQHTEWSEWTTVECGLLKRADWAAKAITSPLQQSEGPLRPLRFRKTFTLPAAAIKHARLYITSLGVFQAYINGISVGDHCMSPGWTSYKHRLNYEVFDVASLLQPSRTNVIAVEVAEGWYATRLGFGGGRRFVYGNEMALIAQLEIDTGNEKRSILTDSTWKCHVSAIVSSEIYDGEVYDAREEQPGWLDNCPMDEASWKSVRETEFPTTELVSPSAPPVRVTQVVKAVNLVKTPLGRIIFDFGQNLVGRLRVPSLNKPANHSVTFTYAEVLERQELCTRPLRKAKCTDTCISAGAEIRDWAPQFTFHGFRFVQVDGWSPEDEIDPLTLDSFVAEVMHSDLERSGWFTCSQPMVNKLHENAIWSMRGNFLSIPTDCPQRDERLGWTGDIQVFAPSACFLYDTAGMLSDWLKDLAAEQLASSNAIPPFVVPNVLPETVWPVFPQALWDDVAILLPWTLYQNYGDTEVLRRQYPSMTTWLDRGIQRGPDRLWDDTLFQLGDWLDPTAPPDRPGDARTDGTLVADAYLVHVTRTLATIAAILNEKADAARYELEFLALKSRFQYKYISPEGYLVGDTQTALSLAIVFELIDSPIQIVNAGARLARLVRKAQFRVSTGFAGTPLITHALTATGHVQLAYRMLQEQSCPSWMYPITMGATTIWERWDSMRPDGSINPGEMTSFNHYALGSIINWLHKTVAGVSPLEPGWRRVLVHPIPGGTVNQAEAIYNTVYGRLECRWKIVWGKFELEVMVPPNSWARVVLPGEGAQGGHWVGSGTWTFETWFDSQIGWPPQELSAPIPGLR

[4] = target: T3, α-Galactosidase (Coffea arabica, UniProt Q42656); details: Coffee beans, cited from earlier work
T3 construct: purchased Sigma-Aldrich Chemical Co

[5] = target: β-Glucosidase; details: Almond, cited from earlier work; for inhibition %: at 1000 μM
[6] = target: T4, α-Glucosidase (Oryza sativa subsp. japonica, UniProt Q653V7); details: Rice, cited from earlier work
T4 construct: purchased Sigma-Aldrich Chemical Co

[7] = target: T5, α-L-Fucosidase (Bos taurus, UniProt Q2KIM0); details: Bovine kidney, cited from earlier work
T5 construct: purchased Sigma-Aldrich Chemical Co; host or cells: bovine kidney
T5 sequence (Q2KIM0 23-468): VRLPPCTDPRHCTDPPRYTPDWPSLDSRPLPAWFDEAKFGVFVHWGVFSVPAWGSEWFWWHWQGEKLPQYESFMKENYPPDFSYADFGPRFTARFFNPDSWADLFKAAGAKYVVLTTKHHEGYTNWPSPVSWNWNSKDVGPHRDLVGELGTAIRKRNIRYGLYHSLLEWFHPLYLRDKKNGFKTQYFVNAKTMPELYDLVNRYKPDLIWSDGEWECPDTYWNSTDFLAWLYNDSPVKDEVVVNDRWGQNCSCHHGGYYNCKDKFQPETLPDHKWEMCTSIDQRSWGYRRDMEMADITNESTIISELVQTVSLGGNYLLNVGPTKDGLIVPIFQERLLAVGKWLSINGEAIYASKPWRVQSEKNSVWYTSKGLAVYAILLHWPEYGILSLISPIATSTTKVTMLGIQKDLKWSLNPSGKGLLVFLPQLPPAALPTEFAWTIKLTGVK

[8] = test system: β-Galactosidase; details: β-Galactosidase, Bovine liver, cited from earlier work
[9] = target: T6, Amyloglucosidase (Aspergillus niger, UniProt P69328); parameters: method as in PMID 21157573; details: A. niger, cited from earlier work
T6 construct: purchased Sigma-Aldrich Chemical Co

[10] = target: T7, α-Glucosidase (Saccharomyces cerevisiae, UniProt P53341); details: Yeast, cited from earlier work; for inhibition %: at 1000 μM
T7 construct: purchased Sigma-Aldrich Chemical Co

[11] = target: T8, α-Mannosidase (Canavalia ensiformis, UniProt C0HJB3); details: Jack bean, cited from earlier work
T8 construct: purchased Sigma-Aldrich Chemical Co
T8 sequence (C0HJB3 1-981): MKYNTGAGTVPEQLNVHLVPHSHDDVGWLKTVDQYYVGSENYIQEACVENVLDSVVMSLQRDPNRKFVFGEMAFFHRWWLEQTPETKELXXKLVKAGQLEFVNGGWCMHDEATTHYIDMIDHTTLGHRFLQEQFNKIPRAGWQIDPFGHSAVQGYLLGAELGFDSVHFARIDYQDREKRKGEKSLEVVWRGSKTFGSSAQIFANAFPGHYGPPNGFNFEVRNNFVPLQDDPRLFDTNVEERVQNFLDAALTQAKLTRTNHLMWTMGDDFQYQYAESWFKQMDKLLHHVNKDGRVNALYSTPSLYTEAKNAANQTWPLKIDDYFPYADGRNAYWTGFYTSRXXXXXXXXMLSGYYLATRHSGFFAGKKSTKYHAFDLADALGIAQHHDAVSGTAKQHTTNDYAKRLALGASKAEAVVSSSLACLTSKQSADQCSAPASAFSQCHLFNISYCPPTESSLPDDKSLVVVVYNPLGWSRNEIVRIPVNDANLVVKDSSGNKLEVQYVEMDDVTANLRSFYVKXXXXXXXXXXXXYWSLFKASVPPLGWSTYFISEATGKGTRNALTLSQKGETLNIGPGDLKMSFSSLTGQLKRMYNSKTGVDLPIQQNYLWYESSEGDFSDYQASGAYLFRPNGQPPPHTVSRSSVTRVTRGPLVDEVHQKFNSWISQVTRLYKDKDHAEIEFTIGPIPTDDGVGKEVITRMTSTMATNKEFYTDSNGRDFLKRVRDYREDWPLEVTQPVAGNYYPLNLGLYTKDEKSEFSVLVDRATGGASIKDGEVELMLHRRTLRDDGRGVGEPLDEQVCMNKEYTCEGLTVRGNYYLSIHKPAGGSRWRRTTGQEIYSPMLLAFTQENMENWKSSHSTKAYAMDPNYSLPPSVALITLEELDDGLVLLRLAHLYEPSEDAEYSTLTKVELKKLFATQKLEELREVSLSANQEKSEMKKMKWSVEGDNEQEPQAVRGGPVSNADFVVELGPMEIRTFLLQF

[12] = target: T9, β-Glucuronidase (Escherichia coli, UniProt P05804); parameters: method as in PMID 22928735; details: E.coli, cited from earlier work; for inhibition %: at 1000 μM
T9 construct: purchased Sigma-Aldrich Chemical Co

[13] = target: Rat intestinal maltase; details: cited from earlier work
[14] = test system: β-glycosidase; parameters: method as in earlier work; details: cited from earlier work

T6 sequence (P69328 25-640): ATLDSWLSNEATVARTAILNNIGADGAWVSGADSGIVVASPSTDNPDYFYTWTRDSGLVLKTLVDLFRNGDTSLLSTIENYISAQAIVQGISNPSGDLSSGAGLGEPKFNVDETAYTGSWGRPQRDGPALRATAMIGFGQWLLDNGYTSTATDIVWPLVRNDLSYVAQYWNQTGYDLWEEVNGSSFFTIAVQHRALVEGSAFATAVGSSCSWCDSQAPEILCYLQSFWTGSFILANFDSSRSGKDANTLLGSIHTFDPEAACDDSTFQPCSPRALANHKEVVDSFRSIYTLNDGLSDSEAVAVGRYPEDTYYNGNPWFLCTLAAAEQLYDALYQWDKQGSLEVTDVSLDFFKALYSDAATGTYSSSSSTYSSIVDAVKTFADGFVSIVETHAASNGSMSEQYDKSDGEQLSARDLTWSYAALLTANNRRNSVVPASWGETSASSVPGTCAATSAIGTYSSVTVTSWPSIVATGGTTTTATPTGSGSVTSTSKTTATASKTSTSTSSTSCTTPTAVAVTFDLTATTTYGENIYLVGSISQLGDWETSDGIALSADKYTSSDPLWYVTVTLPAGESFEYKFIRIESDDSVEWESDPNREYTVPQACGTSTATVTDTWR
T4 sequence (Q653V7 34-885): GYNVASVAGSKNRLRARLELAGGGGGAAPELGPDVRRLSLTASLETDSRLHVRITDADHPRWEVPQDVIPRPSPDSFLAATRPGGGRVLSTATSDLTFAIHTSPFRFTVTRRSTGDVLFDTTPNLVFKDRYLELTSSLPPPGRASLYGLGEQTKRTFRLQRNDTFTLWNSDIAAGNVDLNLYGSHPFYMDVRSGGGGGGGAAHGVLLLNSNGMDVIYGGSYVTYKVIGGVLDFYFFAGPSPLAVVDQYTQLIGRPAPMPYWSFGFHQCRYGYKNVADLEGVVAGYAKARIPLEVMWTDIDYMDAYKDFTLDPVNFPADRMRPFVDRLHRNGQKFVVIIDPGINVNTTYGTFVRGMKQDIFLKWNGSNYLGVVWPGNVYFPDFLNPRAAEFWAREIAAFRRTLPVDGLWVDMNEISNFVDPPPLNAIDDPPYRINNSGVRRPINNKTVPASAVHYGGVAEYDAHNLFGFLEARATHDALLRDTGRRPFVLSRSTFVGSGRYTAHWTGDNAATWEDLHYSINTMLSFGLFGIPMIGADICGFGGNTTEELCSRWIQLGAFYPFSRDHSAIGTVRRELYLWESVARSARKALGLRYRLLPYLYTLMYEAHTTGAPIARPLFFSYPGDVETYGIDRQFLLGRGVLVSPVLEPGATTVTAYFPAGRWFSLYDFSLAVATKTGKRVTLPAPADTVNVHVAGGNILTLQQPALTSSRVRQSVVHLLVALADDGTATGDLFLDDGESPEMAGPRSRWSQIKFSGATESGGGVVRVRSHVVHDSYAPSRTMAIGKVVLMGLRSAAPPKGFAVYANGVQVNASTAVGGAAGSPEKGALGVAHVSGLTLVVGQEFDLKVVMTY
T7 sequence (P53341 whole entry): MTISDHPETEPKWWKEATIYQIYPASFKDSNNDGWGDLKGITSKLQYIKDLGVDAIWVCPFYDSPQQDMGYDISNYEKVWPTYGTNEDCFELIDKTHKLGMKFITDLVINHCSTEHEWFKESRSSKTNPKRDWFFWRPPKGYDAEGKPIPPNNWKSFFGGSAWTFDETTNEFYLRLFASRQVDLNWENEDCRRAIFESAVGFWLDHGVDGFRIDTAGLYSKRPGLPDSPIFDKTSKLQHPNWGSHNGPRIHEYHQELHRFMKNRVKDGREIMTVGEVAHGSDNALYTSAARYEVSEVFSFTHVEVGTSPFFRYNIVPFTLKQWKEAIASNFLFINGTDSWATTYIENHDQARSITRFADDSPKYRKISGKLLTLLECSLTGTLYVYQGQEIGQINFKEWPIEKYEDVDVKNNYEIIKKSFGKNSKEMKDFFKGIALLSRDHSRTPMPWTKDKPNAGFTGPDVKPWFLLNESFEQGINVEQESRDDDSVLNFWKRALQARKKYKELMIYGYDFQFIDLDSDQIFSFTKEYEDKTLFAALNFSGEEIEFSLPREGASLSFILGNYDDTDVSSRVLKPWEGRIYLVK
T3 sequence (Q42656 16-378): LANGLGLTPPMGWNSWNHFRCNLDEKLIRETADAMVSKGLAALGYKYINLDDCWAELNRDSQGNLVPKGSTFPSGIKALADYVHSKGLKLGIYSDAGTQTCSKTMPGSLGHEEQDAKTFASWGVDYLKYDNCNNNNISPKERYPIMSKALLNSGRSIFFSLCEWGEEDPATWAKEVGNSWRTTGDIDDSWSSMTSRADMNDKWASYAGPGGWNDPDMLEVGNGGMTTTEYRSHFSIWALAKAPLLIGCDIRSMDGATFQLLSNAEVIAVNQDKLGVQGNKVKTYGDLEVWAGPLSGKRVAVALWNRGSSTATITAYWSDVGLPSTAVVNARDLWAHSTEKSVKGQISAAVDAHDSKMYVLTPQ
T9 sequence (P05804 whole entry): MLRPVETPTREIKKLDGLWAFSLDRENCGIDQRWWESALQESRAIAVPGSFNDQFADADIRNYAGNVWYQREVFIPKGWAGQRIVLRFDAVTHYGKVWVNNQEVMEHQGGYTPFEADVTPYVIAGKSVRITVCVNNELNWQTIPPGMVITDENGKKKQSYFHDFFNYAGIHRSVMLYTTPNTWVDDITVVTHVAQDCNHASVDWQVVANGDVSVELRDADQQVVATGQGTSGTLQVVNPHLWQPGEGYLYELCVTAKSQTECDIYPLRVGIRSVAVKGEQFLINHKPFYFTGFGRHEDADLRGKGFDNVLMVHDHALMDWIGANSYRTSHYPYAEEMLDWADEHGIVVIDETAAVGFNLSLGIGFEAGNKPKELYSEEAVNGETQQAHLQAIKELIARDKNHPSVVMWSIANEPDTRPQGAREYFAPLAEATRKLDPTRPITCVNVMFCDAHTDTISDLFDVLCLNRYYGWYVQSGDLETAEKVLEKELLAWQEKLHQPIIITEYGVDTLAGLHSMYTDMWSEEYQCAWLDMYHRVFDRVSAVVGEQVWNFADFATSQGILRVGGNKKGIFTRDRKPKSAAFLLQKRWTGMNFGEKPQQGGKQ

OC[C@H]1NC[C@@H](O)[C@@H]1O [DAB (1), 1,4-dideoxy-1,4-imino-D-arabinitol]
IC50 [1]: 638 µM | IC50 [2]: > 1000 µM | inhibition % ([2]; at 1000 μM (per NI footnote)): 10% | inhibition % ([3]; at 1000 μM (per NI footnote)): 5% | IC50 [4]: > 1000 µM | inhibition % ([4]; at 1000 μM (per NI footnote)): 7% | IC50 [5]: 250 µM | IC50 [6]: 250 µM | IC50 [7]: > 1000 µM | inhibition % ([7]; at 1000 μM (per NI footnote)): 11% | inhibition % ([8]; at 1000 μM (per NI footnote)): 37% | IC50 [8]: > 1000 µM | IC50 [9]: 362 µM | IC50 [10]: 0.15 µM

OC[C@@H]1NC[C@H](O)[C@H]1O [LAB (ent-1), 1,4-dideoxy-1,4-imino-L-arabinitol]
inhibition % ([1]; at 1000 μM (per NI footnote)): 13% | IC50 [2]: > 1000 µM | inhibition % ([2]; at 1000 μM (per NI footnote)): 1% | IC50 [11]: > 1000 µM | inhibition % ([11]; at 1000 μM (per NI footnote)): 0% | IC50 [4]: > 1000 µM | inhibition % ([4]; at 1000 μM (per NI footnote)): 2% | IC50 [5]: > 1000 µM | IC50 [6]: 3.2 µM | IC50 [7]: > 1000 µM | inhibition % ([7]; at 1000 μM (per NI footnote)): 0% | inhibition % ([8]; at 1000 μM (per NI footnote)): 16% | IC50 [8]: > 1000 µM | IC50 [9]: > 1000 µM | inhibition % ([9]; at 1000 μM (per NI footnote)): 41% | IC50 [10]: 70 µM

OC[C@@H]1N[C@H](CO)[C@@H](O)[C@@H]1O [D-gluco-DMDP]
IC50 [2]: […] | inhibition % ([2]; at 1000 μM): 14.6% | IC50 [11]: […] | inhibition % ([11]; at 1000 μM): 13.3% | inhibition % ([3]; at 1000 μM): 24.1% | IC50 [12]: […] | inhibition % [12]: 5.1% | inhibition % ([4]; at 1000 μM): 38.4% | IC50 [5]: 256 µM | IC50 [13]: 138 µM | inhibition % ([7]; at 1000 μM): 37.2% | IC50 [8]: […] | IC50 [10]: 167 µM

OC[C@@H]1N[C@@H](CO)[C@@H](O)[C@H]1O [L-altro-DMDP]
inhibition % ([1]; at 1000 μM): 10.3% | IC50 [2]: […] | inhibition % ([2]; at 1000 μM): 3.7% | IC50 [11]: […] | inhibition % ([11]; at 1000 μM): 37.6% | IC50 [12]: […] | inhibition % [12]: 2.0% | IC50 [5]: […] | inhibition % [5]: 15.9% | IC50 [13]: 754 µM | inhibition % ([6]; at 1000 μM): 9.5% | inhibition % ([8]; at 1000 μM): […] | IC50 [8]: […] | IC50 [10]: […] | inhibition % [10]: 35.1%

OCC1NC(C(O)CCCCC2CCCC3(CCCO3)O2)C(O)C1O (stereo not shown) [compound 6, broussonetine G]
β-glycosidase inhibition (in words) [14]: potent β-glycosidase inhibition

OC[C@@H]1N[C@@H](CO)[C@H](O)[C@H]1O (single isomer, unassigned) [L-DMDP (ent-2)]
inhibition % ([1]; at 1000 μM): 4.6% | IC50 [2]: […] | inhibition % ([2]; at 1000 μM): 12.6% | IC50 [11]: […] | inhibition % ([11]; at 1000 μM): 17.3% | inhibition % ([3]; at 1000 μM): 45.6% | IC50 [12]: […] | inhibition % [12]: 0.8% | inhibition % ([4]; at 1000 μM): 13.8% | IC50 [5]: […] | inhibition % [5]: 12.1% | IC50 [13]: 1.2 µM | inhibition % ([7]; at 1000 μM): […] | inhibition % ([8]; at 1000 μM): […] | IC50 [8]: […] | IC50 [10]: […] | inhibition % [10]: 34.9%

OCC1NC(CO)C(O)C1O (stereo not shown) [DMDP (2), 2,5-dihydroxymethyl-3,4-dihydroxypyrrolidine]
IC50 [2]: 721 µM | IC50 [11]: […] | inhibition % ([11]; at 1000 μM): 31.5% | inhibition % ([3]; at 1000 μM): 24.1% | IC50 [12]: […] | inhibition % [12]: 0.4% | inhibition % ([4]; at 1000 μM): 10.5% | IC50 [5]: 10 µM | IC50 [13]: 290 µM | inhibition % ([7]; at 1000 μM): 37.2% | IC50 [8]: […] | IC50 [10]: […] | inhibition % [10]: 15.6%

O=C(CCCCO)CCCCCCC[C@@H](O)[C@H]1N[C@H](CO)[C@@H](O)[C@@H]1O [compound 5, broussonetine F]
β-glycosidase inhibition (in words) [14]: potent β-glycosidase inhibition

O=C(CCCO)CCCCCCCC[C@@H](O)[C@H]1N[C@H](CO)[C@@H](O)[C@@H]1O [compound 4, broussonetine E]
β-glycosidase inhibition (in words) [14]: potent β-glycosidase inhibition
